Results reported in PMC3589550 (Nature structural & molecular biology, 2011).
Ends that are not written are not given here.

What was measured:
[1] = molecular target: HAUSP TRAF domain (HAUSP^62–205) (Homo sapiens, UniProt Q93009); assay type: binding; conditions: ITC
PEL cells = assay: Immunoblot of p53 and transcriptional targets, PEL cells; assay type: cell-based; conditions: various PEL cells, 6 h
HAUSP [2] = molecular target: T1, HAUSP (Homo sapiens, UniProt Q93009); assay: In vitro DUB assay with ubiquitinated MDM2; assay type: biochemical; conditions: HAUSP preincubated with increasing concentrations of peptide
T1 sequence (Q93009 whole entry): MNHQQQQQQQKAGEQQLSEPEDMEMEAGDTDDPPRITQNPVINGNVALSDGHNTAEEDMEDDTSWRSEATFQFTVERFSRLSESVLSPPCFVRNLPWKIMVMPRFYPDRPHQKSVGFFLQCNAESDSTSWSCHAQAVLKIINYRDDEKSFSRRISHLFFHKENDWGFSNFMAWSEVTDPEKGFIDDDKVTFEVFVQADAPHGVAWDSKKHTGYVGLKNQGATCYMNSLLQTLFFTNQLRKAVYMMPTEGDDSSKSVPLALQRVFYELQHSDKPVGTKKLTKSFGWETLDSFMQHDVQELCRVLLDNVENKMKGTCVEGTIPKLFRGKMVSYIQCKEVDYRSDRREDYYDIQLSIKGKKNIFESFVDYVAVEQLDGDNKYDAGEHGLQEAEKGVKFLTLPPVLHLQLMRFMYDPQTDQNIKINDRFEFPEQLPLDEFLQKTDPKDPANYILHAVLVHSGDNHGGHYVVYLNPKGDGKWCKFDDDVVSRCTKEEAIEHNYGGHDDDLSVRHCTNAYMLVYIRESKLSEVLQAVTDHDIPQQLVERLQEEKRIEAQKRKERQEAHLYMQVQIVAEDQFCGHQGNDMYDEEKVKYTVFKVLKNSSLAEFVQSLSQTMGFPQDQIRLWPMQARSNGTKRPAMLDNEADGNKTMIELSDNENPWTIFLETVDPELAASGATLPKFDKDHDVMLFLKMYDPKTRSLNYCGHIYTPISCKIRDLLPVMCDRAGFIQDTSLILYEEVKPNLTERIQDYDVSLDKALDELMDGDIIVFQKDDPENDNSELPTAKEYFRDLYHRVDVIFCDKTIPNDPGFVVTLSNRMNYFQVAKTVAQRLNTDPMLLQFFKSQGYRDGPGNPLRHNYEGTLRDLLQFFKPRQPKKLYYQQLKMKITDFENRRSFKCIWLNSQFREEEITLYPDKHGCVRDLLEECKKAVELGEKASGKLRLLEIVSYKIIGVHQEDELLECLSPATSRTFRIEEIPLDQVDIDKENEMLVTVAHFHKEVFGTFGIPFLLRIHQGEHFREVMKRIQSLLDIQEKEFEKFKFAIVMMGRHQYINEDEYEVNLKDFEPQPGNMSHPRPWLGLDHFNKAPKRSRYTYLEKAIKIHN

BJAB cells = assay: Immunoblot of p53 pathway proteins, BJAB; assay type: cell-based; conditions: 6 h
HAUSP TRAF domain = assay: Competitive ITC: vIRF4^202–216 vs cellular substrate peptides on the TRAF domain; assay type: binding
HAUSP [3] = molecular target: T1, HAUSP; assay: In vitro deubiquitination; assay type: biochemical
HAUSP [4] = molecular target: T1, HAUSP; assay: Co-IP / GST pull-down of HAUSP; assay type: binding; conditions: transfected 293T cells

Sequence of HAUSP TRAF domain (HAUSP^62–205) (Q93009 62-205): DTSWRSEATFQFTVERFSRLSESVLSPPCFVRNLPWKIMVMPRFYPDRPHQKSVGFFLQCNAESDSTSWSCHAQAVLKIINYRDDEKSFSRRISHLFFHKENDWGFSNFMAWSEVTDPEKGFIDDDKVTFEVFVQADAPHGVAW

Compound	TRAF binding affinity, in words [1]	HAUSP levels (PEL cells)	HAUSP DUB activity toward ubiquitinated MDM2 (HAUSP [2])	HAUSP levels (BJAB cells)	observed association constant (Kobs) (HAUSP TRAF domain; vIRF4^202–216 titrated as competitor against MDM2^137–152)	observed association constant (Kobs) (HAUSP TRAF domain; vIRF4^202–216 titrated as competitor against p53^350–364)	observed association constant (Kobs) (HAUSP TRAF domain; vIRF4^202–216 titrated as competitor against p53^355–369)	HAUSP enzymatic activity against K48-linked polyubiquitin chains (HAUSP [3]; K48-linked polyubiquitin chains)	HAUSP DUB activity (HAUSP [3]; purified HAUSP, K48- or K63-linked 3–7 polyubiquitin chains)	interaction with HAUSP (HAUSP [4])	association constant (Ka) (HAUSP TRAF domain; substrate peptide titrated into the HAUSP TRAF domain)
CC[C@H](C)[C@H](NC(=O)[C@H](Cc1c[nH]c2ccccc12)NC(=O)[C@@H](NC(=O)[C@@H](N)CO)C(C)C)C(=O)N1CCC[C@H]1C(=O)N[C@H](C(=O)N[C@@H](CC(N)=O)C(=O)N[C@@H](CCC(=O)O)C(=O)NCC(=O)N[C@@H](C)C(=O)N[C@@H](CO)C(=O)N[C@H](C(=O)N[C@@H](CO)C(=O)NCC(=O)N[C@@H](CCSC)C(=O)O)[C@@H](C)O)C(C)C [vif1]	binds to the HAUSP TRAF domain with the highest affinity among all reported substrates	Neither the vif1 nor vif2 peptide treatment altered HAUSP levels	effectively blocked HAUSP DUB activity when ubiquitinated MDM2 was used as a substrate	Neither the vif1 nor vif2 peptide treatment altered HAUSP levels	1.09e+07 M⁻¹	4.42e+07 M⁻¹	3.58e+07 M⁻¹	ineffectiveness against K48-linked polyubiquitin chains	minimally inhibited activity	individually capable of interacting with HAUSP	
DLVQELQEEKPSSSHL [MDM2^137–152, reference compound]											91000 M⁻¹
